Experimental data: BindingDB's records for doi:10.1074/jbc.M114.574061 (AstraZeneca R&D Boston, 2014)

Tests used:
Assay in all cases: Aminoacylation Assay
Conditions in all cases: pH 8
[1] = molecular target: Phenylalanine--tRNA ligase alpha/beta subunit (Escherichia coli (strain K12), UniProt P07395+P08312)
Procedure: (§1) Compounds were solubilized in DMSO. Serial 2-fold dilutions covering two concentration ranges, 10 mM to 19.5 μM and 100 μM to 195 nM, were prepared. 0.6 μl/well of the diluted compound solutions (50× the final assay concentration) were added to white 384-well polystyrene assay plates (Thermo Fisher Scientific/Matrix Technology Corp., Hudson, NH). Uninhibited control wells (MAX)received 2 μl of 30% (v/v) DMSO. Baseline wells (MIN) received 2 μl of a solution containing 30% (v/v)DMSO and 15 mM L-phenylalanine (Sigma-Aldrich). Assays were performed in a buffer consisting of 50 mM Tris-HCl (pH 8.0), 50 mM NH4Cl, 10 mM MgCl2, 2 mM DTT, 0.005% Tween 20 (Surfact-Amps-20, Thermo Fisher Scientific/Pierce Protein Research products, Suwanee, GA), and 0.1 mM EDTA-NaOH (pH 8.0). Compounds were preincubated with 15 μl/well of either 2 nM E. coli PheRS, 2 nM H. influenzae PheRS, or 0.8 nM P. aeruginosa PheRS in buffer for 30 min at 2× final assay concentrations. The reactions were initiated with 15 μl/well of a 2× substrate solution in buffer containing 2 μM E. coli phenylalanine tRNA (Sigma-Aldrich), 100 μM ATP, and 2 μM [3H]Phe with a specific radioactivity of 6.3 Ci/mmol (PerkinElmer Life Sciences). The reactions were quenched after 30 min with 15 μl/well of a solution containing 4 mg/ml PVT/PEI/WGA type A SPA beads (PerkinElmer Life Sciences), 262 mM sodium citrate (pH 2.0), and 150 mM NaCl. The plates were sealed with transparent film (PerkinElmer Life Sciences). The beads were allowed to settle for a minimum of 2 h before scintillation counting with a Top-Count plate reader (PerkinElmer Life Sciences). [3H] counts (CPM) for aminoacylated tRNA were measured for 1 min/well.

[2] = molecular target: Phenylalanine--tRNA ligase alpha/beta subunit (Pseudomonas aeruginosa, UniProt Q9I0A3+Q9I0A4)
Sequence of Phenylalanine--tRNA ligase alpha/beta subunit (Pseudomonas aeruginosa, UniProt Q9I0A3+Q9I0A4) (Q9I0A3 whole entry): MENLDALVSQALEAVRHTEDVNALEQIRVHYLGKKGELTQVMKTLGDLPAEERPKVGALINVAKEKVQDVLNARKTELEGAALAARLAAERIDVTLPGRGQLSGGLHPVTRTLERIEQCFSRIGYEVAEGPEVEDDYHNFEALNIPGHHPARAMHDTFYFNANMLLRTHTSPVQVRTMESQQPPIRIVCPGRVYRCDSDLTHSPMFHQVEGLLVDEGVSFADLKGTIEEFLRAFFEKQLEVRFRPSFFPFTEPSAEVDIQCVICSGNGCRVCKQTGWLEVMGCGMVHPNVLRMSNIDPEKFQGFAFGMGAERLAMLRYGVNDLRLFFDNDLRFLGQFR
Sequence of Phenylalanine--tRNA ligase alpha/beta subunit (Pseudomonas aeruginosa, UniProt Q9I0A3+Q9I0A4) (Q9I0A4 whole entry): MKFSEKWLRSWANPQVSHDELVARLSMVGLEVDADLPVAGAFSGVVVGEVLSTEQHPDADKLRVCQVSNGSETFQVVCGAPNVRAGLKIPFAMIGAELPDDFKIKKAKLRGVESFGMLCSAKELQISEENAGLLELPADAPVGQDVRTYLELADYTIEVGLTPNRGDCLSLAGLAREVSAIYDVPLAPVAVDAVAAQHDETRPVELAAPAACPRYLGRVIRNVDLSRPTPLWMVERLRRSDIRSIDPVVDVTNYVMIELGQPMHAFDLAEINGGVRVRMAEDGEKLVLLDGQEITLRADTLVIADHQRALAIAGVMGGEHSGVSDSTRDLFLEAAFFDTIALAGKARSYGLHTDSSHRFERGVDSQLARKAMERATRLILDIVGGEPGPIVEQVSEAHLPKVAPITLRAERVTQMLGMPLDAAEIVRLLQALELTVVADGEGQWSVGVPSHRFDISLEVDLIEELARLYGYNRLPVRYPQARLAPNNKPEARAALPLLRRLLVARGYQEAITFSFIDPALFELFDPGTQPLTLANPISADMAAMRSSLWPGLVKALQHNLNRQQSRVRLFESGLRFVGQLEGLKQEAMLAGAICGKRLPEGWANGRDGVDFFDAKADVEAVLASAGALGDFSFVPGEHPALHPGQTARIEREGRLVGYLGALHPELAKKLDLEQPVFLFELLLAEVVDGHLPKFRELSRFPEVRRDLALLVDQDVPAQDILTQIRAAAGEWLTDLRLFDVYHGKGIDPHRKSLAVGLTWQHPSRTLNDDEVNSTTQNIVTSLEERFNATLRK
Procedure: as §1

[3] = molecular target: Phenylalanine--tRNA ligase alpha/beta subunit (Pseudomonas aeruginosa (strain ATCC 15692 / PAO1 / 1C / PRS 101 / LMG12228), UniProt A0A8B5A132+Q9I0A4)
Sequence of Phenylalanine--tRNA ligase alpha/beta subunit (Pseudomonas aeruginosa (strain ATCC 15692 / PAO1 / 1C / PRS 101 / LMG12228), UniProt A0A8B5A132+Q9I0A4) (A0A8B5A132 whole entry): as the sequence (Q9I0A3 whole entry) above
Sequence of Phenylalanine--tRNA ligase alpha/beta subunit (Pseudomonas aeruginosa (strain ATCC 15692 / PAO1 / 1C / PRS 101 / LMG12228), UniProt A0A8B5A132+Q9I0A4) (Q9I0A4 whole entry): as the sequence (Q9I0A4 whole entry) above
Procedure: as §1

Sequence of Phenylalanine--tRNA ligase alpha/beta subunit (Escherichia coli (strain K12), UniProt P07395+P08312) (P08312 whole entry): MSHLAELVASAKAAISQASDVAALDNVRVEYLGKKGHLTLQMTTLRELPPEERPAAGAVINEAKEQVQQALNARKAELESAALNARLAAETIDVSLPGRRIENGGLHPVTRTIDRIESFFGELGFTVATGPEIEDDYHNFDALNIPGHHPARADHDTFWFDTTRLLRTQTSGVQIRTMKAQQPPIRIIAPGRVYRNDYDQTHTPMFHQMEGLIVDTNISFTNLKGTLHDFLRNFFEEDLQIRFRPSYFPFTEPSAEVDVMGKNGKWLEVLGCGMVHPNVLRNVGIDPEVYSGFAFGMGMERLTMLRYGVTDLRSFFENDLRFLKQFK
Sequence of Phenylalanine--tRNA ligase alpha/beta subunit (Escherichia coli (strain K12), UniProt P07395+P08312) (P07395 whole entry): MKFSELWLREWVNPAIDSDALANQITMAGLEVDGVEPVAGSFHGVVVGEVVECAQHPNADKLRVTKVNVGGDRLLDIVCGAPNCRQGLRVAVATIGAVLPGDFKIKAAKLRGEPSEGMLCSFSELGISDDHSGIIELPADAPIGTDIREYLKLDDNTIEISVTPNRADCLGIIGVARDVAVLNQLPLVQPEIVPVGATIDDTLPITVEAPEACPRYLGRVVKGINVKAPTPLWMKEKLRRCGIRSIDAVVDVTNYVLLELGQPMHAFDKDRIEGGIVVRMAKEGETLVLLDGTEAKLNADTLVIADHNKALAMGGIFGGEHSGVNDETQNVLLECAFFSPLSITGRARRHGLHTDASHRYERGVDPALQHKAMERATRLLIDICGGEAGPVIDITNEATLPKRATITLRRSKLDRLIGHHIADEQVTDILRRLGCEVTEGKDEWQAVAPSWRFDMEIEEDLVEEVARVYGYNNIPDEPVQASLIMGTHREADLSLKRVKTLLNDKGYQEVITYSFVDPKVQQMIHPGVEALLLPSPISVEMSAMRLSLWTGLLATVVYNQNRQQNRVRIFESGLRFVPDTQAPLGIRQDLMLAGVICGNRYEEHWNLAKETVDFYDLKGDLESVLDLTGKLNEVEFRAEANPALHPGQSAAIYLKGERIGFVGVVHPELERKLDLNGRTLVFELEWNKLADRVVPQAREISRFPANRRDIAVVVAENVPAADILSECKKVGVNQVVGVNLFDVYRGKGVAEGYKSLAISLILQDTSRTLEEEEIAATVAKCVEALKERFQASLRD

Row | Structure (SMILES) | IC50 [1] | IC50 [2] | IC50 [3]
1 | CS(=O)(=O)C1(CCNC(=O)COc2cccc(-c3cc(C(F)(F)F)[nH]n3)c2)CC1 [N-(2-(1-(methylsulfonyl)cyclopropyl)ethyl)-2-(3-(5-(trifluoromethyl)-1H-pyrazol-3-yl)phenoxy)acetamide (3e)] | 70 nM | 4200 nM | –
2 | O=C(Nc1cccc(S(=O)(=O)N2CCN(c3ccccn3)CC2)c1)Nc1nccs1 [1-(3-(4-(Pyridin-2-yl)piperazin-1-ylsulfonyl)phenyl)-3-(thiazol-2-yl)urea (1a)] | 2.7 nM | – | 22 nM
3 | CNC(=O)COc1cccc(Nc2cc(C#N)ccn2)c1 [2-(3-(4-Cyanopyridin-2-ylamino)phenoxy)-N-methylacetamide (2b)] | 560 nM | – | 41000 nM
4 | NS(=O)(=O)CCNC(=O)c1csc(COc2ccc(Cl)cc2)n1 [2-((4-Chlorophenoxy)methyl)-N-(2-sulfamoylethyl)thiazole-4-carboxamide (4c)] | 190 nM | – | 26000 nM
5 | Cc1ccc(OCc2nc(C(=O)NC3CCS(=O)(=O)C3)cs2)cc1 (stereo unspecified) [N-(1,1-dioxothiolan-3-yl)-2-[(4-methylphenoxy)methyl]thiazole-4-carboxamide (4a)] | 1400 nM | – | 80000 nM
6 | CNC(=O)COc1cccc(Nc2cc(Cl)ccn2)c1 [2-(3-(4-Chloropyridin-2-ylamino)phenoxy)-N-methylacetamide (2a)] | 1400 nM | – | 82000 nM
7 | O=C(Nc1cccc(S(=O)(=O)NCCc2c[nH]c3ccccc23)c1)Nc1nccs1 [N-(2-(1H-indol-3-yl)ethyl)-3-(3-thiazol-2-ylureido)benzenesulfonamide (1b)] | 2.2 nM | 13 nM | –
8 | CCOC(=O)COc1cccc(-c2cc(C(F)F)n[nH]2)c1 [Ethyl 2-(3-(3-(difluoromethyl)-1H-pyrazol-5-yl)phenoxy)acetate (3c)] | 1000 nM | 59000 nM | –
9 | O=C(COc1cccc(Nc2cc(Cl)ccn2)c1)NC1CCS(=O)(=O)C1 (stereo unspecified) [2-[3-[(4-Chloro-2-pyridyl)amino]phenoxy]-N-(1,1-dioxothiolan-3-yl)acetamide (2c)] | 100 nM | – | 34000 nM
10 | N#CCNC(=O)c1csc(COc2ccc(Cl)cc2)n1 [2-((4-Chlorophenoxy)methyl)-N-(cyanomethyl)thiazole-4-carboxamide (4b)] | 100 nM | – | 13000 nM
11 | COc1cccc(-c2cc(C(F)(F)F)n[nH]2)c1 [5-(3-Methoxyphenyl)-3-(trifluoromethyl)-1H-pyrazole (3a)] | 60 nM | 10000 nM | –
12 | COc1cccc(-c2ncc(C(F)(F)F)[nH]2)c1 [2-(3-methoxyphenyl)-5-(trifluoromethyl)-1H-imidazole (3d)] | 16000 nM | > 200000 nM | –
13 | CCOC(=O)COc1cccc(-c2cc(C(F)(F)F)[nH]n2)c1 [Ethyl 2-(3-(5-(trifluoromethyl)-1H-pyrazol-3-yl)phenoxy)acetate (3b)] | 80 nM | 11000 nM | –
